Entries after “also recorded” stand apart in the source; their conditions may differ.
Columns and labels:
[1] = system: CCHC zinc fingers of pADPRT or p7 NC protein of retroviruses; settings: cited from earlier work
L 1210 cells = test: cytotoxic effect of IABP and INO2 BA, alone and combined, on L 1210 cell growth; assay type: cell-based, murine; settings: Mus musculus, L1210, 72 h, three days, read-out: decrease of L 1210 cell proliferation
Procedure: 64 μM INO2 BA decreased L 1210 cell proliferation by approximately 80% over a three day growth period.

cells = settings: Cole et al.; cited from earlier work
[2] = system: SIVmac239 or virus isolates in CEM ×174 cells; settings: Chuang et al., submitted (1994); cited from earlier work
[3] = system: SIVmac239 in CEM ×174 cells; test: effect of IABP on SIVmac239 replication, p27 core antigen assay; assay type: cell-based, SIV
Procedure: CEM ×174 cells (3×10^5 /ml) were infected with SIVmac239 on day 0 and incubated for 3 days (37° C., 5% CO2) before treatment with IABP (0-0.5 mM). The cultures were incubated for an additional 4 days before being replenished with fresh CEM ×174 cells (3×10^5/ml) and IABP. On day 10 the levels of free virus in the supernatants of the cultures were assessed using the SIV p27 core antigen assay (Coulter Corp). The absorbance was measured at 450 nm.
The effect of IABP on the infection cycle of SIV was determined. CEM ×174 cells (3×10^5 /ml) were infected with SIVmac239 on day 0 and incubated for 3 days ([…], 5% CO2) before treatment with IABP (0-0.5 mM). The cultures were incubated for an additional 4 days before being replenished with fresh CEM ×174 cells (3×10^5/ml) and IABP. On day 10 the levels of free virus in the supernatants of the cultures were assessed using the SIV p27 core antigen assay (Coulter Copr.) The absorbance was measured at 450 nm.

HIV = settings: Cole et al.; cited from earlier work

Nc1ccc2oc(=O)ccc2c1I [IABP, 5-iodo-6-amino-1,2-benzopyrone]
influence on CCHC zinc fingers [1]: no influence
inhibition at 160 µM (L 1210 cells; IABP 160 μM): ~55%
inhibition at 320 µM (L 1210 cells; IABP 320 μM): ~80%
inhibition at 480 µM (L 1210 cells; IABP 480 μM): ~93%
toxicity of IABP (cells): very low; also recorded: no toxic effect on cells; also recorded: non-toxicity
sensitivity to addition of BSO [2]: insensitive
p27 levels ([3]; 0-0.5 mM, day 10): depresses p27 levels proportional to its concentration
titre of virions in the supernatant ([3]; 0.3 and 0.5 mM IABP): reduced the titre of virions
infectious cycle of HIV (HIV): blocked the infectious cycle of HIV

From patent publication US5877185A, “Synergistic compositions useful as anti-tumor agents” (priority 1995, dated 1999)
